Legend:
[1] = pH of citric acid and acetic acid at varying concentrations; type: physicochemical
Method: Wipes were prepared as described in Example 1 above. Citric acid at concentrations of Oppm, 500 ppm, 1000 ppm, 2000 and 4000 ppm were separately applied to the Tencel® substrates along with Bardac 205 quaternary ammonium. The wipes were prepared in duplicate. The organic acid and quaternary ammonium chemicals were added to the textile simultaneously. The following is a table showing the pH of citric acid and acetic acid at varying concentrations: […]

[2] = Squeeze method: expression of quaternary ammonium from treated Tencel wipes, quantified by HPLC; type: physicochemical; conditions: Example 3, FIG. 4, citric acid 0, 500, 1000, 2000, 4000 ppm with Bardac 205 on Tencel, 24 hours soak
Method: Wipes were prepared as described in Example 1 above. […] The wipes were prepared in duplicate. The organic acid and quaternary ammonium chemicals were added to the textile simultaneously.

Molecule	pH ([1]; concentration 10 ppm)	pH ([1]; concentration 50 ppm)	pH ([1]; concentration 500 ppm)	release of dimethyl benzyl ammonium chloride from wipe [2]
CC(=O)O [Acetic Acid, acetic acid]	2.69	2.62	2.56	–
alkyl dimethyl benzyl ammonium chloride	–	–	–	As the citric acid concentration increased, the amount of quaternary ammonium released also increased
O=C(O)CC(O)(CC(=O)O)C(=O)O [Citric Acid, citric acid]	2.48	2.58	2.65	–

Source: patent US11723359B2, “Disposable antimicrobial wipes and methods of making” (Ecolab USA Inc., priority 2015, dated 2023)
